The values below come from US20260109712A1, “RIFAMYCINS FOR NONTUBERCULOUS MYCOBACTERIA” (priority 2022, published 2026).

For test [1], the system named is M. abscessus Bamboo. In words: Caseum surrogate MBC90 (cMBC90) kill assay. Type of test: cell-based, Mycobacterium abscessus. As to conditions: for cMBC90/bMBC90: 5-day assays; for MBC: read-out: cMBC90.
Excerpt: (§1) The surrogate matrix was generated as described previously from cultured THP-1 cells (ATCC TIB-202) (mBio, 2023, 14, e0059823). M. abscessus exponential cultures grown in Middlebrook 7H9 broth (Sigma Aldrich) (OD600 0.6-0.9) were spun down and resuspended in water to an OD600 of 7, 0.7, and 0.07. As described for the M. tuberculosis caseum surrogate assay (mnBio, 2023, 14, e0059823), the bacterial suspensions (at three different dilutions resulting in ˜10^9, 10^8, and 10^7 starting CFU/mL, represented by circle, square, and triangle indicators respectively) were added to the caseum surrogate in the ratio 2:1 (vol/wt), briefly homogenized with 1.4-mm zirconia beads, divided evenly into nine 1.5-mL microcentrifuge tubes, and incubated as standing cultures at 37° C. At the indicated time points, tubes were removed and used for CFU enumeration by plating on Middlebrook 7H11 agar (Sigma Aldrich). Separate tubes were used at each time point. To determine the kill curves, cultures with a starting CFU/mL of 10^8 were used (resulting in the middle curve with square indicators). Arrows indicate the time points when drugs were added and the end of the treatment. The experiment was repeated three times independently, yielding similar results. A representative example is shown. Dots and error bars represent means and standard deviations of three technical replicates, respectively.
FIGS. 29A-29M show the Dose-response kill curves against M. abscessus Bamboo in caseum surrogate. M. abscessus cultures were set up as described in the legend of FIG. 28. Bacterial cell suspensions were added to yield a starting CFU of 10^8/mL (FIG. 28, middle growth curve with square indicators). […] The shaded areas indicate drug concentration windows achieved in caseum in vivo. (Antimicrob. Agents Chemother., 2021, 65, e0050621; Antimicrob. Agents Chemother., 2022, 66, e0221221; PLoS Med., 2019, 16, e1002773; ACS Infect. Dis., 2016, 2, 251-267). The experiment was repeated twice independently, yielding similar results. A representative example is shown. Dots and error bars represent means and standard deviations of three technical replicates, respectively. Horizontal dotted lines indicate the cutoff for 1 log reduction in CFU compared to 10-day drug-free control culture. The cMBC90 values shown in Table 16 are the drug concentrations that reduce CFU by 90% relative to the CFU of drug-free controls at day 10. Since the cultures were in the stationary phase on day 5 when drug treatment started, the CFUs of the drug-free cultures at day 10 were similar to the CFUs of the drug-free cultures at day 5 (FIG. 28).
as §1, with “(doi: 10.1128/mbio.00598-23).” for “(mBio, 2023, 14, e0059823).”, “(doi: 10.1128/mbio.00598-23),” for “(mnBio, 2023, 14, e0059823),”, “CFU/mL)” for “CFU/mL, represented by circle, square, and triangle indicators respectively)”, “curves for the drugs,” for “curves,”, “used.” for “used (resulting in the middle curve with square indicators). Arrows indicate the time points when drugs were added and the end of the treatment.”, “results.” for “results. A representative example is shown. Dots and error bars represent means and standard deviations of three technical replicates, respectively.”
The experiment was repeated twice independently, yielding similar results. A representative example is shown. The cMBC90 values shown in Table 16 are the drug concentrations that reduce CFU by 90% relative to the CFU of drug-free controls at day 10. […]

Test [2] concerns M. abscessus ATCC 19977. In words: MIC assay in 96-well plate format, wild-type strain. Type of test: cell-based, Mycobacterium abscessus. As to conditions: for MIC ratio: WT MIC/Δarr strain MIC. The gist of the method:
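Two-fold, ten-point dilutions in 7H9 with 2% DMSO; mid-log culture diluted to OD600=0.1 (1×10^7 CFU/mL). Incubated 3 days at 37 °C, shaking 110 RPM; growth = Day 3 minus Day 0 OD600, expressed as percentage of drug-free growth and plotted against concentration. Two biological replicates.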

Test [3] deals with M. fortuitum ATCC 6841. In words: MIC, anti-mycobacterial profiling. As to conditions: for MIC: mean of two experiments. The format is cell-based, Mycobacterium fortuitum.
The subject of test [4] is RFB-R1 M. abscessus. Description: microbe, parasite or virus in culture. To be noted: for MIC: Mycobacteroides abscessus, read-out: RFB-R1 M. abscessus MIC. The format is cell-based, Mycobacterium abscessus.
The test system of test [5] is M. kansasii ATCC 12478. In words: MIC, anti-mycobacterial profiling. To be noted: for MIC: mean of two experiments. Type of test: cell-based, Mycobacterium kansasii.
Test [6] relates to M. simiae ATCC 25275. Description: MIC, anti-mycobacterial profiling. The format is cell-based, Mycobacterium simiae. As to conditions: for MIC: mean of two experiments.
Test [7] has as its system M. abscessus Bamboo. In words: MIC assay, clinical isolate Bamboo. Type of test: cell-based, Mycobacterium abscessus. To be noted: for MIC: broth, M. abscessus Bamboo, Table 16, read-out: MIC.
Test [8] deals with M. abscessus Bamboo. Description: Broth MBC90 (bMBC90). As to conditions: broth, 5 days. The format is cell-based, Mycobacterium abscessus. From the text:
Broth MIC, broth MBC90 (bMBC90), and caseum surrogate MBC90 ([…]) of clinically used antibiotics and of novel ADP-ribosylation-resistant rifabutin analogs against M. abscessus Bamboo have been evaluated.

In test [9] the test system is M. avium subsp. hominisuis MAC109. In words: MIC, anti-mycobacterial profiling. To be noted: for MIC: mean of two experiments. Type of test: cell-based, Mycobacterium avium.
For test [10], the system named is M. chimaera CCUG 50989T. In words: MIC, anti-mycobacterial profiling. To be noted: for MIC: mean of two experiments. Type of test: cell-based, Mycobacterium chimaera.
[11] abbreviates: 90% inhibition of bacterial growth.
[12] abbreviates: Mycobacteroides abscessus, 120 h.
Where [13] appears, read: Mycobacteroides abscessus, ATCC19977, M. abscessus ATCC 19977, 90% growth inhibition, read-out: WT Mab MIC.
Setting [14] is: Mycobacteroides abscessus, ATCC19977, M. abscessus subsp. abscessus ATCC 19977, mean of two experiments, read-out: MIC.
The mark [15] stands for this setting: Mycolicibacterium fortuitum, ATCC6841.
[16] abbreviates: Mycobacterium kansasii, ATCC12478.
The mark [17] stands for this setting: Mycobacterium simiae, ATCC25275.

≈ marks a conversion by molar mass, not a printed value. Read-outs that look alike come from different tables or passages of the source.

With `CO[C@H]1/C=C/O[C@@]2(C)Oc3c(C)c(O)c4c(c3C2=O)C2=NC3(CCN(CC(C)C)CC3)NC2=C(NC(=O)/C(C)=C/C=C/[C@H](C)[C@H](O)[C@@H](C)[C@@H](O)[C@@H](C)[C@H](OC(=O)c2cccnc2)[C@@H]1C)C4=O` [5m, 25-O-(3-pyridinecarbonyl)-25-O-desacetyrifabutin], the cMBC90/bMBC90 in [1] worked out at 12.5. Besides, the MBC was 2 µM (≈ 1.82 µg/mL) in test [1] (caseum surrogate, 5 days, 90% CFU reduction vs drug-free control) and 0.16 µM (≈ 0.146 µg/mL) in test [8]. In addition, the “Mab 19977 MIC” value in test [2] (setting [11]) was determined as 0.025 µM. In addition, the MIC in test [2] (M. abscessus ATCC 19977, 90% growth inhibition, read-out: WT Mab MIC) is 0.024 µM (≈ 0.0218 µg/mL); in [2] (M. abscessus subsp. abscessus ATCC 19977, mean of two experiments, read-out: MIC) it was 0.02 µM (≈ 0.0182 µg/mL); in test [2] (PK tables 2 and 8, read-out: WT MIC), 0.024 µM (≈ 0.0218 µg/mL); in test [3], 0.02 µM (≈ 0.0182 µg/mL); in [5] it was 0.008 µM (≈ 0.00728 µg/mL); in test [6], 0.2 µM (≈ 0.182 µg/mL). In addition, the MIC is on record as 0.02 µM (≈ 0.0182 µg/mL) in test [7], 0.04 µM (≈ 0.0364 µg/mL) in [9] and 0.06 µM (≈ 0.0546 µg/mL) in test [10]. The “Fold improvement (RFB-5m vs RFB)” value in test [2] (M. abscessus subsp. abscessus ATCC 19977) is recorded as 55; in test [3] it was 60; in test [5], 1.0; in test [6], 95; in [9], 0.8; in test [10] it was 0.8. In addition, in test [2], the MIC ratio is reported as 0.9. Besides, the “RFB-R1 M. abscessus MIC” value in [4] (rpoB H447Y mutant, 90% inhibition) was >100 µM. The “Mab Bamboo MIC” value in test [7] (setting [11]) worked out at 0.023 µM.
In test [1], `CC[C@H]1OC(=O)[C@H](C)[C@@H](O[C@H]2C[C@@](C)(OC)[C@@H](O)[C@H](C)O2)[C@H](C)[C@@H](O[C@@H]2O[C@H](C)C[C@H](N(C)C)[C@H]2O)[C@](C)(OC)C[C@@H](C)C(=O)[C@H](C)[C@@H](O)[C@]1(C)O` [clarithromycin, reference compound] showed a cMBC90/bMBC90 of 64. Also, the MBC in [1] (setting [12]) was determined as 128 µM (≈ 95.7 µg/mL); in [8] (setting [12]), 2 µM (≈ 1.5 µg/mL). Moreover, the MIC in test [2] (setting [13]) came to 1.45 µM (≈ 1.08 µg/mL); in test [2] (setting [14]), 1.5 µM (≈ 1.12 µg/mL); in [3] (setting [15]), 3.2 µM (≈ 2.39 µg/mL); in test [4], 2.1 µM (≈ 1.57 µg/mL); in test [5] (setting [16]) it was 0.3 µM (≈ 0.224 µg/mL); in test [6] (setting [17]), 12 µM (≈ 8.98 µg/mL). For the same compound, the results for the MIC in test [7] (Mycobacteroides abscessus), in test [9] (Mycobacterium avium) and in [10] (CCUG50989T) were 0.4 µM (≈ 0.299 µg/mL), 0.5 µM (≈ 0.374 µg/mL) and 0.8 µM (≈ 0.598 µg/mL), respectively. Further, the MIC ratio in test [2] stood at 0.7.
With `CO[C@H]1/C=C/O[C@@]2(C)Oc3c(C)c(O)c4c(c3C2=O)C2=NC3(CCN(CC(C)C)CC3)NC2=C(NC(=O)/C(C)=C\C=C\[C@H](C)[C@H](O)[C@@H](C)[C@@H](O)[C@@H](C)[C@H](OC(C)=O)[C@@H]1C)C4=O` [rifabutin, reference compound], the cMBC90/bMBC90 in test [1] was 16. Moreover, the values for the MBC in test [1] (setting [12]) and in test [8] (setting [12]) were 72 µM (≈ 61 µg/mL) and 5 µM (≈ 4.24 µg/mL), respectively. Besides, the MIC is 1.15 µM (≈ 0.974 µg/mL) in test [2] (setting [13]); 1.1 µM (≈ 0.932 µg/mL) in test [2] (setting [14]); 1.15 µM (≈ 0.974 µg/mL) in [2] (Mycobacteroides abscessus, ATCC19977, PK tables 2 and 8, read-out: WT MIC); 1.2 µM (≈ 1.02 µg/mL) in test [3] (setting [15]); > 100 µM in test [4]; 0.008 µM (≈ 0.00678 µg/mL) in test [5] (setting [16]). Moreover, the MIC was found to be 19 µM (≈ 16.1 µg/mL) in [6] (setting [17]), 3 µM (≈ 2.54 µg/mL) in [7] (Mycobacteroides abscessus), 0.03 µM (≈ 0.0254 µg/mL) in test [9] (Mycobacterium avium) and 0.05 µM (≈ 0.0424 µg/mL) in test [10] (CCUG50989T). Moreover, the MIC ratio in [2] is on record as 39.3.
